Data from US20180282281A1, “IMMUNOREGULATORY AGENTS” (FLEXUS BIOSCIENCES, INC., priority 2014, published 2018).
pIC50: −log10 of the molar value.

Each compound was assayed against T1, human IDO1 (Homo sapiens, UniProt P14902) (assay: HEK293 human IDO1 cell-based IDO inhibition assay). Details: HEK293 cells stably expressing human IDO1; 20 hours incubation; absorbance at 490 nm (Ehrlich reagent); 500 nM reference standard = 100% inhibition; read-out: HEK Human IDO-1 Potency.
T1 construct: expressed in transfected cells
T1 sequence (P14902 whole entry): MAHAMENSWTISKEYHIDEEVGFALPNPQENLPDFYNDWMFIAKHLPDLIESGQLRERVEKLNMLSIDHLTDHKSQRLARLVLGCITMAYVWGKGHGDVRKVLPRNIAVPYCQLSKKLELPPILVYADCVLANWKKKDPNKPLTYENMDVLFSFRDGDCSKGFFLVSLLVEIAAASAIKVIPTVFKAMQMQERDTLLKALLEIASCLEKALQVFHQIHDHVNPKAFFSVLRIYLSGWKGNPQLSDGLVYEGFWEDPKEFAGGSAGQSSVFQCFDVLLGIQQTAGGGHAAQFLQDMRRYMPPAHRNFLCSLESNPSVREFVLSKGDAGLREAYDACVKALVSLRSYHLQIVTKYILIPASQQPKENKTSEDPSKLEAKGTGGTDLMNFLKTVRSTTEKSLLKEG
Procedure, shortened: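 HEK293 cells stably expressing human IDO1, 10,000/well in RPMI with 10% FBS, treated with compound 20 h at 37 °C. Stopped with 0.2% final TCA, 50 °C for 30 min; supernatant mixed with 0.2% Ehrlich reagent in acetic acid, 30 min RT, absorbance read at 490 nm.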

| Compound | pIC50 |
| --- | --- |
| N-(4-chlorophenyl)-2-(cis-4-(6-fluoroquinolin-4-yl)-1-hydroxycyclohexyl) propanamide [Example 231] | > 6.60 |
| N-(4-chlorophenyl)-2-(cis-4-(6-fluoroquinolin-4-yl)-1-hydroxycyclohexyl) propanamide [Example 232] | > 7.30 |
| N-(4-chlorophenyl)-2-(trans-4-(6-fluoroquinolin-4-yl)-1-hydroxycyclohexyl) propanamide [Example 229] | > 7.30 |
| N-(4-chlorophenyl)-2-(trans-4-(6-fluoroquinolin-4-yl)-1-hydroxycyclohexyl) propanamide [Example 230] | > 6.60 |

Same assay, conditions: read-out: HEK Human IDO-1 Potency

| Compound | pIC50 |
| --- | --- |
| C[C@@H](C(=O)Nc1ccc(C(F)(F)F)c(C#N)c1)[C@H]1CC[C@@H](c2ccnc3ccc(F)cc32)CC1 [Example 82, (R)—N-(3-Cyano-4-(trifluoromethyl)phenyl)-2-((cis)-4-(6-fluoroquinolin-4-yl)cyclohexyl)propanamide] | > 6.60 |
| CCC(C(=O)Nc1ccc(Cl)cc1)[C@H]1CC[C@H](Oc2ccnc3c(C(F)(F)F)cccc23)CC1 (stereo partly drawn) [Example 86, N-(4-Chlorophenyl)-2-((trans)-4-((8-(trifluoromethyl)quinolin-4-yl)oxy)cyclohexyl)butanamide] | > 7.30 |
| O=C(CN1CCC(Oc2ccc3nccc(Cl)c3c2)CC1)Nc1ccc(Cl)cc1 [Example 90, N-(4-Chlorophenyl)-2-(4-((4-chloroquinolin-6-yl)oxy)piperidin-1-yl)acetamide] | < 6.60 |
| O=C(CN1CCC(Oc2ccnc3ccc(F)cc23)CC1)Nc1ccc(Cl)cc1 [Example 95, N-(4-Chlorophenyl)-2-(4-((6-fluoroquinolin-4-yl)oxy)piperidin-1-yl)acetamide] | > 6.60 |
| O=C(CC1CCN(Cc2ccnc3ccccc23)CC1)Nc1ccc(Cl)cc1 [Example 113, N-(4-Chlorophenyl)-2-(1-(quinolin-4-ylmethyl)piperidin-4-yl)acetamide] | > 7.30 |
| O=C(CC1CCN(Cc2ccnc3ccccc23)CC1)Nc1ccc(F)cc1 [Example 114, N-(4-Fluorophenyl)-2-(1-(quinolin-4-ylmethyl)piperidin-4-yl)acetamide] | > 6.60 |
| O=C(CC1CCN(c2ccnc3ccc(F)cc23)CC1)Nc1ccc(F)cc1 [Example 115, N-(4-Fluorophenyl)-2-(1-(6-fluoroquinolin-4-yl)piperidin-4-yl)acetamide] | < 6.60 |
| O=C(CC1CCN(c2ccnc3ccc(F)cc23)CC1)Nc1ccc(Cl)cc1 [Example 116] | < 6.60 |
| O=C(CC1CCN(c2ccnc3ccc(F)cc23)CC1)Nc1ccc(Br)cc1 [Example 117] | < 6.60 |
| Cc1ccc(NC(=O)CC2CCN(c3ccnc4ccc(F)cc34)CC2)c(F)c1 [Example 118] | < 6.60 |
| Cc1cc(Cl)ccc1NC(=O)CC1CCN(c2ccnc3ccc(F)cc23)CC1 [Example 119] | < 6.60 |
| CC1(CC(=O)Nc2ccc(F)cc2)CCN(c2ccnc3ccc(F)cc23)CC1 [Example 120, N-(4-Fluorophenyl)-2-(1-(6-fluoroquinolin-4-yl)-4-methylpiperidin-4-yl)acetamide] | < 6.60 |
| Cc1ccc(NC(=O)CC2(C)CCN(c3ccnc4ccc(F)cc34)CC2)cc1 [Example 121] | < 6.60 |
| CC1(CC(=O)Nc2cncnc2)CCN(c2ccnc3ccc(F)cc23)CC1 [Example 122] | < 6.60 |
| CC1(CC(=O)Nc2ccc(Cl)cc2)CCN(c2ccnc3ccc(F)cc23)CC1 [Example 123] | > 7.30 |
| COc1ncc(NC(=O)CC2(C)CCN(c3ccnc4ccc(F)cc34)CC2)cn1 [Example 124] | < 6.60 |

| Compound | pIC50 |
| --- | --- |
| CCOc1ccc(NC(=O)CC2(C)CCN(c3ccnc4ccc(F)cc34)CC2)cc1 [Example 125] | > 6.60 |
| CC(C(=O)O)c1ccc(C[C@@H](C(=O)Nc2ccc(C#N)cc2)[C@H]2CC[C@@H](c3ccnc4ccc(F)cc43)CC2)cc1 (stereo partly drawn) [Example 140, 2-(4-((R)-3-((4-Cyanophenyl)amino)-2-((cis)-4-(6-fluoroquinolin-4-yl)cyclohexyl)-3-oxopropyl)phenyl)propanoic Acid] | > 7.30 |
| C[C@@H](C(=O)Nc1ccc(Cl)cc1O)[C@H]1CC[C@@H](c2ccnc3ccc(F)cc32)CC1 [Example 238, (R)-N-(4-chloro-2-hydroxyphenyl)-2-(cis-4-(6-fluoroquinolin-4-yl)cyclohexyl)propanamide] | > 7.30 |
| C[C@@H](C(=O)Nc1ccc(Cl)c(O)c1)[C@H]1CC[C@@H](c2ccnc3ccc(F)cc32)CC1 [Example 239, (R)-N-(4-chloro-3-hydroxyphenyl)-2-(cis-4-(6-fluoroquinolin-4-yl)cyclohexyl)propanamide] | > 7.30 |
| C[C@@H](C(=O)NC1CC2CCC1C2)[C@H]1CC[C@@H](c2ccnc3ccc(F)cc32)CC1 (stereo partly drawn) [Example 240, (2R)-N-((2S)-bicyclo[2.2.1]heptan-2-yl)-2-(cis-4-(6-fluoroquinolin-4-yl)cyclohexyl)propanamide] | > 6.60 |
| C=CC[C@@H](C(=O)Nc1ccc(Cl)cc1N)[C@H]1CC[C@@H](c2ccnc3ccc(F)cc32)CC1 [Example 241, (R)-N-(2-amino-4-chlorophenyl)-2-(cis-4-(6-fluoroquinolin-4-yl)cyclohexyl)pent-4-enamide] | > 7.30 |
| CC1(CC(=O)NC2(C)CCCCC2)CCN(c2ccnc3ccc(F)cc23)CC1 [Example 242, 2-(1-(6-Fluoroquinolin-4-yl)-4-methylpiperidin-4-yl)-N-(1-methylcyclohexyl)acetamide] | > 7.30 |
| CCC(C(=O)Nc1ccc(C)cc1)N1CCC(Oc2ccnc3ccc(F)cc23)CC1 (stereo not drawn) [compound 97] | > 6.60 |
| CCC(C(=O)Nc1ccc(Cl)cc1)N1CCC(Oc2ccnc3ccc(F)cc23)CC1 (stereo not drawn) [compound 98] | > 6.60 |
| CC(C(=O)Nc1ccc(F)cc1)N1CCC(Oc2ccnc3ccc(F)cc23)CC1 (stereo not drawn) [compound 99] | > 7.30 |
| CCOc1ccc(NC(=O)C(C)N2CCC(Oc3ccnc4ccc(F)cc34)CC2)cc1 (stereo not drawn) [compound 100] | > 7.30 |
| Cc1ccc(NC(=O)C(C)N2CCC(Oc3ccnc4ccc(F)cc34)CC2)cc1 (stereo not drawn) [compound 101] | > 7.30 |
| CCOc1ccc(NC(=O)C(C)N2CCC(Oc3ccnc4ccc(F)cc34)CC2)cc1 (stereo not drawn) [compound 107] | > 7.30 |
| CCOc1ccc(NC(=O)C(C)N2CCC(Oc3ccnc4ccc(F)cc34)CC2)cc1 (stereo not drawn) [compound 108] | > 6.60 |
| CCC(C(=O)Nc1ccc(Cl)cc1)N1CCC(Oc2ccnc3ccc(F)cc23)CC1 (stereo not drawn) [compound 111] | > 6.60 |
| CCC(C(=O)Nc1ccc(Cl)cc1)N1CCC(Oc2ccnc3ccc(F)cc23)CC1 (stereo not drawn) [compound 112] | < 6.60 |
